Experimental data published in article PMC11151825 (RSC Chemical Biology, 2024).
Like-named read-outs stand apart in the source and are kept apart here. Square brackets hold non-standard residues; d marks the D form. Peptide text beside a SMILES is read from it. Abu = CC[C@H](N)C(=O)O

How the values were obtained:
[1] = the molecule shown is the open-chain precursor, 3 steps
[2] = target: human C5aR1 (Homo sapiens, UniProt P21730); experiment: cell-based; settings: SEM
[3] = the molecule shown is the open-chain precursor
[4] = the molecule shown is the open-chain precursor; remark: listed apart in the source

human C5aR1, sequence (P21730 whole entry): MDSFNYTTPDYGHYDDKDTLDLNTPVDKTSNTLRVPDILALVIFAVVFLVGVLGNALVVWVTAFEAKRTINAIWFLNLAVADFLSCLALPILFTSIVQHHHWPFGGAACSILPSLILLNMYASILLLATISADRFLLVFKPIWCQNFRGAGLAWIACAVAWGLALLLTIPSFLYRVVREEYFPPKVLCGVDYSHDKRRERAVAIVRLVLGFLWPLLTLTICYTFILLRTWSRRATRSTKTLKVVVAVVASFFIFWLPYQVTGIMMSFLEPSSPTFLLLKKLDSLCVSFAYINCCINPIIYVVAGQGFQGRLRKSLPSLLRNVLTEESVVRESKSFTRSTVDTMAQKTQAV

Compound | ring closure, conversion by HPLC (% (HPLC peak area)) [3] | ring closure, conversion by HPLC (% (HPLC peak area)) [4] | also measured
CC(C)CC(NCCCC[C@@H]1NC(=O)[C@@H](Cc2c[nH]c3ccccc23)NC(=O)[C@H](Cc2ccccc2)NC(=O)[C@@H](NC(=O)[C@H](N)Cc2ccccc2)CSSC[C@@H](C(=O)N[C@H](C(=O)N[C@H](C(=O)N[C@H]2CSSC[C@@H]3NC(=O)CNC(=O)[C@@H]4CCCN4C(=O)[C@H]([C@@H](C)O)NC(=O)[C@H](CC(N)=O)NC(=O)[C@@H]4CSSC[C@@H](C(=O)N[C@H](C(=O)O)[C@@H](C)O)NC(=O)[C@H](C(C)C)NC(=O)[C@@H]5CCCN5C(=O)[C@H](Cc5c[nH]c6ccccc56)NC(=O)[C@H](CO)NC(=O)[C@H](CSSC[C@H](NC(=O)[C@H]([C@@H](C)O)NC(=O)[C@H](CCC(N)=O)NC(=O)CNC2=O)C(=O)N[C@@H](C(C)C)C(=O)NCC(=O)NCC(=O)N[C@@H]([C@@H](C)O)C(=O)N4)NC(=O)[C@H]([C@@H](C)O)NC3=O)C(C)C)[C@@H](C)O)NC(=O)[C@H]([C@@H](C)O)NC1=O)=C1C(=O)CC(C)(C)CC1=O |  |  | ring closure, yield over several steps ([1]; 96-membered ring): 16.1%
CC(C)CC(NCCCC[C@H](NC(=O)[C@@H](N)Cc1ccccc1)C(=O)N1CCC[C@H]1C(=O)N[C@@H](CC(C)C)C(=O)N[C@@H](C)C(=O)N[C@@H](C)C(=O)N[C@H](C)C(=O)N[C@@H](CCCNC(=N)N)C(=O)N[C@H](C(=O)N[C@H]1CSSC[C@@H]2NC(=O)CNC(=O)[C@@H]3CCCN3C(=O)[C@H]([C@@H](C)O)NC(=O)[C@H](CC(N)=O)NC(=O)[C@@H]3CSSC[C@@H](C(=O)N[C@H](C(=O)O)[C@@H](C)O)NC(=O)[C@H](C(C)C)NC(=O)[C@@H]4CCCN4C(=O)[C@H](Cc4c[nH]c5ccccc45)NC(=O)[C@H](CO)NC(=O)[C@H](CSSC[C@H](NC(=O)[C@H]([C@@H](C)O)NC(=O)[C@H](CCC(N)=O)NC(=O)CNC1=O)C(=O)N[C@@H](C(C)C)C(=O)NCC(=O)NCC(=O)N[C@@H]([C@@H](C)O)C(=O)N3)NC(=O)[C@H]([C@@H](C)O)NC2=O)C(C)C)=C1C(=O)CC(C)(C)CC1=O |  |  | ring closure, yield over several steps ([1]; 96-membered ring): 22%
CC[C@H](C)[C@@H]1NC(=O)[C@@H]2CCCN2C(=O)[C@@H]2CCCN2C(=O)[C@H]([C@@H](C)CC)NC(=O)[C@H](CO)NC(=O)[C@H](CCCCNC(CC(C)C)=C2C(=O)CC(C)(C)CC2=O)NC(=O)[C@H]([C@@H](C)O)NC(=O)[C@@H](NC(=O)CN)CSSC[C@@H](C(=O)NCC(=O)N[C@H](C(=O)N[C@H]2CSSC[C@@H]3NC(=O)CNC(=O)[C@@H]4CCCN4C(=O)[C@H]([C@@H](C)O)NC(=O)[C@H](CC(N)=O)NC(=O)[C@@H]4CSSC[C@@H](C(=O)N[C@H](C(=O)O)[C@@H](C)O)NC(=O)[C@H](C(C)C)NC(=O)[C@@H]5CCCN5C(=O)[C@H](Cc5c[nH]c6ccccc56)NC(=O)[C@H](CO)NC(=O)[C@H](CSSC[C@H](NC(=O)[C@H]([C@@H](C)O)NC(=O)[C@H](CCC(N)=O)NC(=O)CNC2=O)C(=O)N[C@@H](C(C)C)C(=O)NCC(=O)NCC(=O)N[C@@H]([C@@H](C)O)C(=O)N4)NC(=O)[C@H]([C@@H](C)O)NC3=O)C(C)C)NC1=O |  |  | ring closure, yield over several steps ([1]; 105-membered ring): 18.7%
CC[C@H](C)[C@H](NC(=O)[C@H](CCCNC(=N)N)NC(=O)[C@H](CCCNC(=N)N)NC(=O)[C@H](CC(C)C)NC(=O)[C@H](Cc1ccccc1)NC(=O)CNC(=O)CNC(=O)[C@@H](N)Cc1ccc(O)cc1)C(=O)N[C@@H](CCCNC(=N)N)C(=O)N1CCC[C@H]1C(=O)N[C@@H](CCCCNC(CC(C)C)=C1C(=O)CC(C)(C)CC1=O)C(=O)N[C@@H](CC(C)C)C(=O)N[C@@H](CCCCNC(CC(C)C)=C1C(=O)CC(C)(C)CC1=O)C(=O)NCC(=O)N[C@H]1CSSC[C@@H]2NC(=O)[C@H](C(C)C)NC(=O)[C@@H]3CCCN3C(=O)[C@H](CC(C)C)NC(=O)CNC(=O)[C@H](CC(N)=O)NC(=O)[C@H](CCCNC(=N)N)NC(=O)[C@H]([C@@H](C)O)NC(=O)[C@@H]3CSSC[C@@H](C(=O)N[C@@H](CC(N)=O)C(=O)O)NC(=O)[C@H]([C@@H](C)O)NC(=O)CNC(=O)CNC(=O)[C@H](C(C)C)NC(=O)[C@H](CSSC[C@H](NC(=O)[C@H]([C@@H](C)O)NC1=O)C(=O)N[C@@H](CO)C(=O)N[C@@H](Cc1c[nH]c4ccccc14)C(=O)N1CCC[C@H]1C(=O)N[C@@H](C(C)C)C(=O)N3)NC(=O)[C@H]([C@@H](C)O)NC(=O)[C@H](CCC(N)=O)NC(=O)CNC2=O |  |  | ring closure, yield over several steps ([1]; 120-membered ring): 11.2%
CC[C@H](C)[C@H](NC(=O)[C@H](CCCNC(=N)N)NC(=O)[C@H](CCCNC(=N)N)NC(=O)[C@H](CC(C)C)NC(=O)[C@H](Cc1ccccc1)NC(=O)CNC(=O)CNC(=O)[C@@H](N)Cc1ccc(O)cc1)C(=O)N[C@@H](CCCNC(=N)N)C(=O)N1CCC[C@H]1C(=O)N[C@@H](CCCCNC(CC(C)C)=C1C(=O)CC(C)(C)CC1=O)C(=O)N[C@@H](CC(C)C)C(=O)N[C@@H](CCCCNC(CC(C)C)=C1C(=O)CC(C)(C)CC1=O)C(=O)N[C@H](C(=O)N[C@H]1CSSC[C@@H]2NC(=O)CNC(=O)[C@@H]3CCCN3C(=O)[C@H]([C@@H](C)O)NC(=O)[C@H](CC(N)=O)NC(=O)[C@@H]3CSSC[C@@H](C(=O)N[C@H](C(=O)O)[C@@H](C)O)NC(=O)[C@H](C(C)C)NC(=O)[C@@H]4CCCN4C(=O)[C@H](Cc4c[nH]c5ccccc45)NC(=O)[C@H](CO)NC(=O)[C@H](CSSC[C@H](NC(=O)[C@H]([C@@H](C)O)NC(=O)[C@H](CCC(N)=O)NC(=O)CNC1=O)C(=O)N[C@@H](C(C)C)C(=O)NCC(=O)NCC(=O)N[C@@H]([C@@H](C)O)C(=O)N3)NC(=O)[C@H]([C@@H](C)O)NC2=O)C(C)C |  |  | ring closure, yield over several steps ([1]; 111-membered ring): 17.4%
CC[C@H](C)[C@H](NC(=O)[C@H](CCCNC(=N)N)NC(=O)[C@H](CCCNC(=N)N)NC(=O)[C@H](CC(C)C)NC(=O)[C@H](Cc1ccccc1)NC(=O)CNC(=O)CNC(=O)[C@@H](N)Cc1ccc(O)cc1)C(=O)N[C@@H](CCCNC(=N)N)C(=O)N1CCC[C@H]1C(=O)N[C@@H](CCCCNC(CC(C)C)=C1C(=O)CC(C)(C)CC1=O)C(=O)N[C@@H](CC(C)C)C(=O)N[C@@H](CCCCNC(CC(C)C)=C1C(=O)CC(C)(C)CC1=O)C(=O)N[C@H](C(=O)N[C@H]1CSSC[C@@H]2NC(=O)[C@H]([C@@H](C)O)NC(=O)CNC(=O)CNC(=O)[C@H](C(C)C)NC(=O)[C@@H]3CSSC[C@@H](C(=O)N[C@@H](CO)C(=O)O)NC(=O)[C@H]([C@@H](C)O)NC(=O)[C@H](CSSC[C@H](NC(=O)[C@H](C(C)C)NC(=O)[C@@H]4CCCN4C(=O)[C@H](CC(C)C)NC(=O)CNC(=O)[C@H](CC(N)=O)NC(=O)[C@H](CCCNC(=N)N)NC(=O)[C@H]([C@@H](C)O)NC1=O)C(=O)NCC(=O)N[C@@H](CCC(N)=O)C(=O)N[C@@H]([C@@H](C)O)C(=O)N3)NC(=O)CNC(=O)[C@@H]1CCCN1C(=O)[C@H]([C@@H](C)O)NC(=O)[C@H](CC(N)=O)NC2=O)C(C)C |  |  | ring closure, yield over several steps ([1]; 120-membered ring): 7.1%
CC[C@H](NC(=O)[C@H](C)NC(=O)[C@H](CC(C)C)NC(=O)[C@@H]1CCCN1C(=O)[C@H](CCCCNC(CC(C)C)=C1C(=O)CC(C)(C)CC1=O)NC(=O)[C@@H](N)Cc1ccccc1)C(=O)N[C@H](C)C(=O)N[C@@H](CCCNC(=N)N)C(=O)N[C@H](C(=O)N[C@H]1CSSC[C@@H]2NC(=O)CNC(=O)[C@@H]3CCCN3C(=O)[C@H]([C@@H](C)O)NC(=O)[C@H](CC(N)=O)NC(=O)[C@@H]3CSSC[C@@H](C(=O)N[C@H](C(=O)O)[C@@H](C)O)NC(=O)[C@H](C(C)C)NC(=O)[C@@H]4CCCN4C(=O)[C@H](Cc4c[nH]c5ccccc45)NC(=O)[C@H](CO)NC(=O)[C@H](CSSC[C@H](NC(=O)[C@H]([C@@H](C)O)NC(=O)[C@H](CCC(N)=O)NC(=O)CNC1=O)C(=O)N[C@@H](C(C)C)C(=O)NCC(=O)NCC(=O)N[C@@H]([C@@H](C)O)C(=O)N3)NC(=O)[C@H]([C@@H](C)O)NC2=O)C(C)C |  |  | ring closure, yield over several steps ([1]; 96-membered ring): 1.1%
CC[C@H](NC(=O)[C@H](C)NC(=O)[C@H](CC(C)C)NC(=O)[C@@H]1CCCN1C(=O)[C@H](CCCCN)NC(=O)[C@@H](N)Cc1ccccc1)C(=O)N[C@H](C)C(=O)N[C@@H](CCCNC(=N)N)C(=O)O [BM221] (H-FKPLA[Abu][dA]R-OH) |  |  | EC50 [2]: 2.8 ± 0.9 nM
H-GCTCSWPVCTRNGLPVCGQTCVGGTCN-OH (6 free Cys) | 2.6 | 9.5 | 
H-GCYFQNCPRGVCGQTCVGGTCNTPGCTCSWPVCT-OH (epitope Cys2-Cys7 disulfide; scaffold I-IV, II-V, III-VI) |  |  | ring closure, yield over several steps ([1]; 102-membered ring): 1.7%
H-GCYIQNCPLGVCGQTCVGGTCNTPGCTCSWPVCT-OH (epitope Cys2-Cys7 disulfide; scaffold I-IV, II-V, III-VI) |  |  | ring closure, yield over several steps ([1]; 102-membered ring): 10.9%
H-RNGLPVCGETCVGGTCNTPGCTCSWPVCT-OH (disulfides I-IV, II-V, III-VI) |  |  | ring closure, yield over several steps ([1]; 87-membered ring): 10.6%
H-RNGLPVCGQTCVGGTCNTPGCTCSWPVCT-OH (disulfides I-IV, II-V, III-VI) |  |  | ring closure, yield over several steps ([1]; 87-membered ring): 24.8%
H-TCNTPGCTCSWPVCTRNGLPVCGQTCV-OH (6 free Cys) | 3.7 | 8.1 | 
H-VCGATCVGGTCNTPGCTCSWPVCT-OH (6 free Cys) | 3.8 | 4.6 | 
H-VCGETCVGGTCNTPGCTCSWPVCT-OH (6 free Cys) | 15.4 | 23.4 | 
H-VCGQTCVGGTCNTPGCTCSWPVCT-OH (6 free Cys) | 9.4 | 16.1 | 
H-VCTRNGLPVCGQTCVGGTCNTPGCTCS-OH (6 free Cys) | 27 | 30.5 | 
cyclo-(CGQTCVGGTCNTPGCTCSWPVCTRNGLPV) (6 free Cys) | 23.5 | 26.1 | 
